{"source": "patent US6326390A", "about": "(King Pharmaceuticals Reseach and Development, Inc., priority 1999, dated 2001)", "key": {"[1]": {"molecular_target": "T1, rat brain A1 adenosine receptor (Rattus norvegicus, UniProt P25099)", "T1 construct": "membranes of rat brain; from tissue; host or cells: whole brain membranes of male Wistar rats", "T1 sequence (P25099 1-326)": "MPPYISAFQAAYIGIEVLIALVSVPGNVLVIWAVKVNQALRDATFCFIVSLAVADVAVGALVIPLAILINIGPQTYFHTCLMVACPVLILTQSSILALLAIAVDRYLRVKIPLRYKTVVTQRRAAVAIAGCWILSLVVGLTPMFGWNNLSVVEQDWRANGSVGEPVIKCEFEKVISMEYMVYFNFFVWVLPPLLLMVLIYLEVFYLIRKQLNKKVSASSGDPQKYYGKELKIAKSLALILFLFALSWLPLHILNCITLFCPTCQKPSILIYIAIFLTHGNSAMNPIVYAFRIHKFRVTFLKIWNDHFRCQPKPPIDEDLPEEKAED", "experiment": "Rat A1 adenosine receptor binding assay, displacement of [^3 H]CHA", "conditions": "rat brain membranes, [^3 H]CHA 1 nM; read-out: rA1 (Ki)", "description": "Male Wistar rats (200-250 g) were decapitated and the whole brain and striatum dissected on ice. […] After 30 min incubation at 37° C., the membranes were centrifuged and pellets were stored at -80° C. Prior to freezing, an aliquot of homogenate was removed for protein assay with bovine albumin as reference standard. Binding assays were performed on rat brain and striatum membranes respectively, in the presence of 10 mM MgCl2 at 25° C. All buffer solutions were adjusted to maintain a constant pH of 7.4.\nSeparation of bound from free radio ligand was performed by rapid filtration through Whatman GF/B filters which were washed three times with ice-cold buffer. Filter bound radioactivity was measured by scintillation spectrometry after addition of 5 mL of Aquassure. […] Incubation time ranged from 150 min. at 0° C. to 75 min at 30° C. according to the results of previous time-course experiments. Ki values were calculated from the Cheng-Prusoff equation. All binding data were analyzed using the nonlinear regression curve-fitting computer program LIGAND."}, "[2]": {"molecular_target": "T2, adenosine A3 receptors in Jurkat cell membranes (Homo sapiens, UniProt P0DMS8)", "T2 construct": "characterization of A3 receptors in some human tumor cell lines; endogenous in cells; host or cells: Jurkat (human T-cell leukaemia), membranes", "T2 sequence (P0DMS8 1-318)": "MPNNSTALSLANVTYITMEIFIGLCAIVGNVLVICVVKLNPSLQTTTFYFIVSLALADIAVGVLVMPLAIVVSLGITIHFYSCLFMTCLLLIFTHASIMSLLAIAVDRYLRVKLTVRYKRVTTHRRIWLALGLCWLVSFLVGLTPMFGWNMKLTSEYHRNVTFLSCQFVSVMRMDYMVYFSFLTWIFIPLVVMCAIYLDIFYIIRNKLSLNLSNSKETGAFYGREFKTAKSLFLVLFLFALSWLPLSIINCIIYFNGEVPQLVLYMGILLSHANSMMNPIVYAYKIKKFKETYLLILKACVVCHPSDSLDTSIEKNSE", "experiment": "Saturation of Compound 1 binding to A3 receptors in Jurkat cell membranes"}, "[3]": {"molecular_target": "T3, adenosine A3 receptors in HL60 membranes (Homo sapiens, UniProt P0DMS8)", "T3 construct": "characterization of A3 receptors in some human tumor cell lines; endogenous in cells; host or cells: HL60 (human promyelocytic leukaemia), membranes", "T3 sequence (P0DMS8 1-318)": "T2 sequence (P0DMS8 1-318)", "experiment": "Saturation of Compound 1 binding to A3 receptors in HL60 membranes"}, "cerebral ischemia": {"system": "cerebral ischemia", "conditions": "chronic administration; cited from earlier work"}, "HL 60 cell line": {"system": "HL 60 cell line", "experiment": "[^125 I]-ABMECA binding on cell membranes of tumor cell lines: HL 60", "design": "species or system human", "procedure": "(§1) A series of binding experiments were performed on various tumor cell lines, using […] [^125 I]-ABMECA, with unspecific binding determined in the presence of 50 μM R-PIA or 200 μM NECA, on cell membranes of the cell lines. Specific binding was determined by substracting unspecific binding from total binding. The cell lines were the HL 60, NB4, SKN-MC, SKN-Be2C, SKN-SH and JURKAT cell lines."}, "NB4 cell line": {"system": "NB4 cell line", "experiment": "[^125 I]-ABMECA binding on cell membranes of tumor cell lines: NB4", "procedure": "as §1"}, "SKN-MC cell line": {"system": "SKN-MC cell line", "experiment": "[^125 I]-ABMECA binding on cell membranes of tumor cell lines: SKN-MC", "procedure": "as §1"}, "SKN-Be2C cell line": {"system": "SKN-Be2C cell line", "experiment": "[^125 I]-ABMECA binding on cell membranes of tumor cell lines: SKN-Be2C", "procedure": "as §1"}, "SKN-SH cell line": {"system": "SKN-SH cell line", "experiment": "[^125 I]-ABMECA binding on cell membranes of tumor cell lines: SKN-SH", "procedure": "as §1"}, "JURKAT cell line": {"system": "JURKAT cell line", "experiment": "[^125 I]-ABMECA binding on cell membranes of tumor cell lines: JURKAT", "design": "species or system human", "procedure": "as §1"}, "[4]": {"molecular_target": "T4, human A3 receptors expressed in HEK 293 cells (Homo sapiens, UniProt P0DMS8)", "T4 sequence (P0DMS8 1-318)": "T2 sequence (P0DMS8 1-318)", "conditions": "saturation, n=3", "description": "Incubation time was 60 min at 37° C., according to the results of previous time-course experiments. Bound and free radioactivity were separated by filtering the assay mixture through Whatman GF/B glass-fiber filters using a Brandel cell harvester. Non-specific binding was defined as binding in the presence of 50 μM R-PIA and was about 30% of total binding. The incubation mixture was diluted with 3 ml of ice-cold incubation buffer, rapidly vacuum filtered and the filter was washed three times with 3 ml of incubation buffer. The filter bound radioactivity was counted in a Beckman gamma 5500B γ counter. The protein concentration can be determined according to a Bio-Rad method (3) with bovine albumin as reference standard.\nNon-specific binding was defined in the presence of 50 μM R-PIA and was about 30% of total binding. Incubation time was 60 min at 37° C., according to the results of previous time-course experiments. Bound and free radioactivity was separated by filtering the assay mixture through Whatman GF/B glass-fiber filters using a Brandel cell harvester."}, "[5]": {"molecular_target": "T5, human A3 receptors expressed in the JURKAT cell line (Homo sapiens, UniProt P0DMS8)", "T5 sequence (P0DMS8 1-318)": "T2 sequence (P0DMS8 1-318)", "conditions": "Jurkat cell membranes, [^125 I]AB-MECA", "description": "Jurkat cell lines appeared to provide the best results of the cell lines tested. A saturation experiment was performed using Jurkat cell lines at 37° C., with a one hour incubation period, using [^125 I]-ABMECA (0.125-1.5 nM), with nonspecific binding measured using RPIA (50 μM)."}}, "note": "pKi: −log10 of the molar value. Read-outs that look alike come from different tables or passages of the source."}
{"smiles": "CCCn1cc2c(nc(NC(=O)Nc3ccc(OC)cc3)n3nc(-c4ccco4)nc23)n1", "note": "[Compound 1, 5-[[(4-Methoxyphenyl)amino]carbonyl]amino-8-propyl-2-(2-furyl)-pyrazolo[4,3-e] 1,2,4-triazolo[1,5-c]pyrimidine]", "values": [{"measurement": "pKi", "setting": "[1]", "result": "< 5.00"}, {"measurement": "density of adenosine A3 receptors detected", "setting": "[2]; Jurkat cells, tritiated analogue of Compound 1", "result": "approximately 1300 fmol/mg protein"}, {"measurement": "Bmax value", "setting": "[2]; Jurkat membranes, 0.2 to 15 nM, n=3", "result": "1.30±0.03", "unit": "pmol/mg protein"}, {"measurement": "density of adenosine A3 receptors detected", "setting": "[3]; HL60 cells, tritiated analogue of Compound 1", "result": "~650", "unit": "fmol/mg protein"}, {"measurement": "Bmax value", "setting": "[3]; HL60 membranes, 0.1 to 10 nM, n=3", "result": "626±42", "unit": "fmol/mg protein"}]}
{"smiles": "CNC(=O)[C@H]1O[C@@H](n2cnc3c(NCc4cccc(I)c4)ncnc32)[C@H](O)[C@@H]1O", "note": "[IB-MECA]", "values": [{"measurement": "protection against cerebral ischemia", "setting": "cerebral ischemia", "result": "protects against cerebral ischemia"}]}
{"smiles": "CNC(=O)[C@H]1O[C@@H](n2cnc3c(NCc4ccc(N)c([125I])c4)ncnc32)[C@H](O)[C@@H]1O", "note": "[[^125 I]AB-MECA, N^6-(4-amino-3-iodobenzyl)-5'-(N-methylcarbamoyl)adenosine]", "values": [{"measurement": "Percent Specific Binding", "setting": "HL 60 cell line; HL 60", "result": 20, "unit": "%"}, {"measurement": "Unspecific Binding", "setting": "HL 60 cell line; HL 60, 50 μM R-PIA or 200 μM NECA", "result": 2791}, {"measurement": "Specific Binding", "setting": "HL 60 cell line; HL 60, total minus unspecific", "result": 693, "unit": "cpm"}, {"measurement": "Total Binding", "setting": "HL 60 cell line; HL 60 cell membranes", "result": 3484}, {"measurement": "Percent Specific Binding", "setting": "NB4 cell line; NB4", "result": 19, "unit": "%"}, {"measurement": "Unspecific Binding", "setting": "NB4 cell line; NB4, 50 μM R-PIA or 200 μM NECA", "result": 2740}, {"measurement": "Specific Binding", "setting": "NB4 cell line; NB4, total minus unspecific", "result": 637, "unit": "cpm"}, {"measurement": "Total Binding", "setting": "NB4 cell line; NB4 cell membranes", "result": 3377}, {"measurement": "Percent Specific Binding", "setting": "SKN-MC cell line; SKN-MC", "result": 17, "unit": "%"}, {"measurement": "Total Binding", "setting": "SKN-MC cell line; SKN-MC cell membranes", "result": 7528}, {"measurement": "Unspecific Binding", "setting": "SKN-MC cell line; SKN-MC, 50 μM R-PIA or 200 μM NECA", "result": 6220}, {"measurement": "Specific Binding", "setting": "SKN-MC cell line; SKN-MC, total minus unspecific", "result": 1308, "unit": "cpm"}, {"measurement": "Percent Specific Binding", "setting": "SKN-Be2C cell line; SKN-Be2C", "result": 24, "unit": "%"}, {"measurement": "Total Binding", "setting": "SKN-Be2C cell line; SKN-Be2C cell membranes", "result": 6000}, {"measurement": "Unspecific Binding", "setting": "SKN-Be2C cell line; SKN-Be2C, 50 μM R-PIA or 200 μM NECA", "result": 4585}, {"measurement": "Specific Binding", "setting": "SKN-Be2C cell line; SKN-Be2C, total minus unspecific", "result": 1415, "unit": "cpm"}, {"measurement": "Percent Specific Binding", "setting": "SKN-SH cell line; SKN-SH", "result": 3, "unit": "%"}, {"measurement": "Total Binding", "setting": "SKN-SH cell line; SKN-SH cell membranes", "result": 2671}, {"measurement": "Unspecific Binding", "setting": "SKN-SH cell line; SKN-SH, 50 μM R-PIA or 200 μM NECA", "result": 2580}, {"measurement": "Specific Binding", "setting": "SKN-SH cell line; SKN-SH, total minus unspecific", "result": 91, "unit": "cpm"}, {"measurement": "Percent Specific Binding", "setting": "JURKAT cell line; JURKAT", "result": 38, "unit": "%"}, {"measurement": "Total Binding", "setting": "JURKAT cell line; JURKAT cell membranes", "result": 7599}, {"measurement": "Unspecific Binding", "setting": "JURKAT cell line; JURKAT, 50 μM R-PIA or 200 μM NECA", "result": 4753}, {"measurement": "Specific Binding", "setting": "JURKAT cell line; JURKAT, total minus unspecific", "result": 2846, "unit": "cpm"}, {"measurement": "Bmax value", "setting": "[4]", "result": "62±1", "unit": "fmol/mg protein"}, {"measurement": "Bmax (density of A3 receptor)", "setting": "[5]", "result": "approximately 300 fmol/mg protein"}, {"measurement": "Bmax (density of A3 receptor)", "setting": "[5]; listed as [^125 I]-ABMECA", "result": 290, "unit": "fmol/mg protein"}]}
